Reference: BindingDB's records for PubMed 36074125 (Purdue University, 2022)

Target: T1, N-terminal Xaa-Pro-Lys N-methyltransferase 1 (Homo sapiens, UniProt Q9BV86)
T1 sequence (Q9BV86 whole entry): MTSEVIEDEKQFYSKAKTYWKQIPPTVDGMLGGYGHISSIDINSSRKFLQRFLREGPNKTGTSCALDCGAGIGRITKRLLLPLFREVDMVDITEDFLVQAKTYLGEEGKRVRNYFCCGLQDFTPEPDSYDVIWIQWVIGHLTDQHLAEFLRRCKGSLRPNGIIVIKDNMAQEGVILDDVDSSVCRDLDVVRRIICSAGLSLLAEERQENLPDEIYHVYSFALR
Assay: Inhibition of full length NTMT1 (1 to 222 residues) (unknown origin) expressed in Escherichia coli BL21 (DE3) using GPKRIA as substrate preincubated for 10 mins followed by substrate addition measured after 15 mins by microplate reader method

Compound | IC50 [nM]
CC(C)(NC(=O)O[C@@H]1CN2CCC1CC2)c1csc(-c2ccc(Cl)cc2)n1 | 910
CC(C)(NC(=O)O[C@@H]1CN2CCC1CC2)c1csc(-c2ccc(C(F)(F)F)cc2)n1 | 3200
